Numbering of substitutions follows the chain as printed. pIC50: −log10 of the molar value.
What was measured:
[1] = test system: MCF-7 WT cells; test: Viability assay (CellTiter-Glo, 7 days), MCF-7 WT; format: cell-based, human
Protocol: (§1) Trypsinized cells were dispensed into 384-well plates in culture media and after overnight incubation cells were treated with compounds for 7 days. Cell viability was assessed using CellTiter-Glo (Promega) according to the manufacturer’s protocol and relative luminescence units (RLU) were measured using an Envision Multilabel Reader (Perkin Elmer). […] IC50 and Imax were analyzed with IDBS XLfit.
(§2) Statistical and graphical presentations were performed using IDBS XLfit and GraphPad Prism 9. For cell proliferation assays, the IC50 was calculated by fitting a dose–response curve using a nonlinear regression model with a log(inhibitor) vs response curve fit. […] P-values < 0.05 were considered statistically significant.

[2] = test system: MCF-7 Y537S cells; test: Viability assay (CellTiter-Glo, 7 days), MCF-7 Y537S; format: cell-based, human
Protocol: as §1, §2

[3] = target: T1, ERα (Homo sapiens, UniProt P03372); test: ERα degradation assay, In-Cell Western, MCF-7 WT; format: cell-based; parameters: MCF-7 wild type and Y537S mutant cells were seeded at a density of 5000 cells per well; host or cells: MCF-7; conditions: 24 h
T1 sequence (P03372 1-595): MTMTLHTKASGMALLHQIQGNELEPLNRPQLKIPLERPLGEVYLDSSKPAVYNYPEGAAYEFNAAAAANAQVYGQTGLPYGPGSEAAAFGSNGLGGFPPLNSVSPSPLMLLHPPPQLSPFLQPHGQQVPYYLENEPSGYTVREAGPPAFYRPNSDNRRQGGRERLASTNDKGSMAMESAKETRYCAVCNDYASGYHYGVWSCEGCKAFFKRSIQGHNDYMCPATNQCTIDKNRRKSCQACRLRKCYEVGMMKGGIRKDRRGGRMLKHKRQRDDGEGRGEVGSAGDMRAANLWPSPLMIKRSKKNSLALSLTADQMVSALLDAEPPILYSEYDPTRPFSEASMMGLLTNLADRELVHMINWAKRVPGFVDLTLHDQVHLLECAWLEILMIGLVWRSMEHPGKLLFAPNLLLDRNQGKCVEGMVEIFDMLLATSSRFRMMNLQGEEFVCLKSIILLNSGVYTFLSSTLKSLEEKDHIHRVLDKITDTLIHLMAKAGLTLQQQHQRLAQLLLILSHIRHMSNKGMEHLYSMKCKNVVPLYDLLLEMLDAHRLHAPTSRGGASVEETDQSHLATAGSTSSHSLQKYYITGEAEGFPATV
Protocol: (§3) MCF-7 wild type and Y537S mutant cells were seeded at a density of 5000 cells per well into flat clear bottom tissue cultured-treated 384-well plates (Greiner) in culture media and after overnight incubation cells were treated with compounds for 24 h. Then plates were fixed with 4% formaldehyde, permeabilized with ice-cold methanol, and blocked with Odyssey Blocking Buffer (LI-COR). The fixed cells were incubated with rabbit anti- ERα antibody (CST#8644S) and mouse anti-GAPDH antibody (Abcam #ab8245), washed and stained with IRDye 800 Goat anti-Rabbit IgG (Licor#926-32211) and IRDye 680 Goat anti-Mouse IgG (Licor#926-68070). ERα levels were quantitated using Sapphire RGBNIR (Azure), the acumen eX3 imaging system. […] IC50 and Emax were analyzed with IDBS XLfit.
MCF7 cells were seeded in a 384-well plate and linear-dilution compounds were administrated in duplicate for each treatment. After incubation for 24 h, Cells in the assay pate were treated as described in methods. ERα levels were quantified by immunofluorescence assay. […] Cells were dispended into 96-well plates and incubated for 24 h with compounds (100 nM) treatment. […] Cells were seeded in 384-well plates and treated with linear-dilution compounds for 7 days of incubation. Cell viability was assessed using CellTiter-Glo. Cell growth inhibition is presented as a percentage of CellTiterGlo activity relative to the vehicle control. […] Then cells in each well were collected and the targeting proteins in lysate supernatant were detected by WB
Cells were seeded at a density of 5,000 cells per well into 384-well plates and treated with linear-titration compounds in duplicate for 24 hours. ERα levels were quantified by immunofluorescence assay as described in the method. The detection signals were captured by Odyssey.

[4] = test system: T47D subcutaneous tumors; test: T47D subcutaneous xenograft mouse model; format: in vivo; conditions: T47D sc, 250 mg/kg subcutaneous once a week
Protocol: Female Balb/c nude mice were used for MCF-7 and T47D tumor subcutaneous xenograft studies. At least one day before tumor cell implantation, estrogen pellets (0.18 mg, 17β-Estradiol, 60-day release, Innovative Research of America, Sarasota, FL, USA) were implanted subcutaneously. Each mouse was subcutaneously injected with 1 × 10^7 MCF-7 (ECACC) or T47D cells in the right flank, and tumor growth was monitored. The long diameter (a) and the short diameter (b) of the tumor were measured using a caliper, and the tumor volume was calculated using the following formula: V = 0.5 × a × b^2. […] Tumor volumes were evaluated twice per week. Treatment tolerability was assessed by body weight measurements and frequent observation for clinical signs of treatment-related adverse effects.
as §2

[5] = test system: advanced HR + /HER2- breast cancer; conditions: cited from earlier work
[6] = test system: MCF7 ESR1 D538G cells; test: Viability assay (CellTiter-Glo, 7 days), MCF7 D538G; format: cell-based, human; conditions: MCF-8 D538G
Protocol: as §1, §2

[7] = target: T2, ERα Y537S mutant (Homo sapiens, UniProt P03372, Y537S); test: ERα degradation assay, In-Cell Western, MCF-7 Y537S; format: cell-based; conditions: 24 h
T2 construct: MCF-7 wild type and Y537S mutant cells were seeded; host or cells: MCF7 expressing ER Y537S
T2 sequence (P03372 1-595 Y537S): T1 sequence (P03372 1-595) with Y537S
Protocol: as §3

With C[C@]12CC[C@@H]3c4ccc(O)cc4C[C@@H](CCCCCCCCC[S+]([O-])CCCC(F)(F)C(F)(F)F)[C@H]3[C@@H]1CC[C@@H]2O (stereo partly shown) [Fulvestrant] the “Viability assay Emax [% Ful.]” value [1] was 97.88 % Ful, the “Viability assay Emax [% Veh.]” value [1] was 49.60 % Veh and the pIC50 ([1]; Homo sapiens, MCF7, 168 h) was 9.40. The “Viability assay Emax [% Ful.]” value [2] was 95.49 % Ful, the “Viability assay Emax [% Veh.]” value [2] was 65.05 % Veh and the pIC50 ([2]; Homo sapiens, MCF7, 168 h) was 7.79. The “ERα degradation assay Dmax [% Ful.]” value [3] was 97.69 % Ful, the “ERα degradation assay Dmax [% Veh.]” value [3] was 56.04 % Veh and the TGI [4] was 48.35%. For the same compound, the “median OS” value [5] was 29.7 months, the PFS ([5]; progressed on prior ET ref 45) was 4.6 months and the pIC50 ([6]; Homo sapiens, MCF7, 168 h) was 7.95. The “Viability assay Emax [% Ful.]” value [6] was 106.1 % Ful, the “Viability assay Emax [% Veh.]” value [6] was 68.57 % Veh and the “ERα degradation assay Dmax [% Ful.]” value [7] was 87.09 % Ful. The “ERα degradation assay Dmax [% Veh.]” value [7] was 26.38 % Veh.

— article PMC10426190 (Breast Cancer Research : BCR, 2023)
